Read-outs that look alike come from different tables or passages of the source. Where no end group is shown, it is not given here.
Columns and labels:
S. aureus Mu50 = assay type: cell-based, Staphylococcus aureus MRSA
Method: (§1) The antibacterial activity was evaluated using a standard MIC and MBC assay according to the National Committee for Clinical Laboratory Standards (NCCLS). MIC, MBC assay, and time-kill curves for the optimal peptide are provided in the Supplementary Materials.
(§2) Antimicrobial Activity Assays. The antibacterial activity of the peptides was determined using a method designed from the National Committee for Clinical Laboratory Standards (NCCLS) in the United States. All the strains used in the experiment are preserved in the laboratory. Briefly, log phase bacterial cells were diluted in MHB to a final concentration of 0.5-1x10^5 CFU/mL. Subsequently, 50μL of different concentrations of polypeptides were incubated with 50 μL of bacterial solution in sterile 96-well plates. In the minimum inhibitory concentration (MIC) assay, the plate was incubated at 37°C for 24 h, and the minimum inhibitory concentration (MIC) was determined by the absorbance at 492 nm of the microplate reader, and the minimum inhibitory concentration (MIC) inhibited 95% of bacteria grow. Determination of minimum bactericidal concentration: the plate was incubated at 37°C for 4 hours, 50 μL of the mixture was taken out of each well, diluted with an appropriate amount of PBS, smeared on the agar plate, and cultured overnight. Colonies were counted and the initial CFU/well was retrospectively calculated the following day. The lowest concentration of peptide that kills 99.9% of bacterial cells is the minimum bactericidal concentration (µM), Each test was replicated at least 3 times.

Gram-positive bacteria = test: Geometric mean MIC and therapeutic index, Gram-positive; assay type: cell-based; conditions: geometric mean of the peptide MICs against Gram-positive strains
Method: as §1, §2

[1] = system: E. coli K88 inner membrane; test: Inner membrane integrity assay (PI); assay type: cell-based, Escherichia coli; conditions: 4 µM peptide, 30 min
Method: The outer and inner membrane integrity of bacterial cells treated with peptides was assessed using NPN and PI staining, respectively. Full details are provided in the Supplementary Materials.
Inner membrane integrity assay. E. coli K88 cells were washed and resuspended in 0.01 mol l−1 of PBS (pH 7.4) to obtain an OD600 of 0.5, followed by the addition of 10 nmol l−1 of PI (Thermo Fisher Scientific, catalogue no. P1304MP) in the presence of […]. After incubation for 30 min, fluorescence was measured with the excitation wavelength at 535 nm and emission wavelength at 615 nm.

E. coli K88 biofilm = test: Anti-biofilm assay (crystal violet); assay type: cell-based, Escherichia coli
Method: (§3) The anti-biofilm activity of DiPGLa-H was evaluated using a crystal violet staining method. Briefly, 100 µL of bacterial suspension at 1 × 10^6 CFU/mL was incubated with DiPGLa-H (0–64 µM) for 48 h. The biofilm formed was stained with 1% crystal violet, and the absorbance was measured at 595 nm. The biofilm formation and mature biofilm removal assays were conducted. For biofilm formation, a bacterial suspension was incubated with DiPGLa-H, and biofilm content was quantified. To assess mature biofilm removal, pre-formed biofilms were treated with DiPGLa-H for 24 h, followed by quantification. Detailed Protocol in Supplementary Materials.
(§4) To test the ability of DiPGLa-H to […] on the test bacteria, a single colony was inoculated in MHB medium and incubated overnight at 37 °C and 180 r/min, and 1% of the bacterial suspension was taken and continued to be amplified and incubated for 2 h. […] The biofilm content was analyzed by measuring the absorbance value at 595 nm, and anhydrous ethanol was used as a blank control. […]

S. aureus Mu50 biofilm = test: Anti-biofilm assay (crystal violet); assay type: cell-based, Staphylococcus aureus MRSA
Method: as §3, §4

E. coli K88 = test: LPS binding assay (MIC with exogenous LPS); assay type: cell-based, Escherichia coli; conditions: increasing addition of external LPS, 37°C 24 h, 492 nm
Method: LPS (Sigma, USA) and LTA (Sigma, USA) were dissolved in water at a concentration of 5 mg/mL. Fifty microliters of DiPGLa-H with a concentration gradient of 1–64 μM and 50 µL of LPS or LTA master mix with different concentration gradients were added to the 96-well plate in 2-fold dilution, and finally, 100 µL of diluted E. coli K88 or S. aureus Mu50 was added, incubated at 37°C in a constant temperature incubator for 24 h. The MIC was determined by absorbance at 492 nm using an enzyme marker as the lowest peptide concentration that inhibited 95% of the bacterial growth.

[2] = 1×10^6 CFU/mL, DiPGLa-H 0-64 µM, 48 h, crystal violet, 595 nm
[3] = pre-formed biofilm treated with DiPGLa-H 0-64 µM for 24 h

## KIAKVALKALKIAKVALKAL-NH2 (C-terminus assumed) [DiPGLa-H]
S. aureus Mu50; Mu50, 4 h
  MBC S. aureus Mu50: 16 µM
S. aureus Mu50; Mu50, 24 h
  MIC S. aureus Mu50: 8 µM
S. aureus Mu50; lowest concentration inhibiting 95% of growth, MHB, 0.5-1x10^5 CFU/mL, 37°C 24 h, absorbance 492 nm, three independent experiments
  MIC S. aureus Mu50: 8 µM
Gram-positive bacteria
  GMMIC Gram-positive: 5.66 µM
[1]
  inner membrane damage (PI): 267%
E. coli K88 biofilm; [2]
  concentration for effective inhibition of biofilm formation: above 4 µM
E. coli K88 biofilm; [3]
  concentration effectively eradicating biofilms: above 16 µM
S. aureus Mu50 biofilm; [2]
  inhibition of biofilm formation: inhibition at higher concentrations
S. aureus Mu50 biofilm; [3]
  concentration effectively eradicating biofilms: above 16 µM
E. coli K88
  reduction of antibacterial activity by external LPS: 16 fold
